{"source": "patent US12139458B2", "about": "“(2,5-dioxopyrrolidin-1-yl)(phenyl)-acetamide derivatives and their use in the treatment of neurological diseases” (UNIWERSYTET JAGIELLONSKI, priority 2019, dated 2024)", "key": {"[1]": {"test_system": "male white Swiss mice (CD-1)", "assay": "Oxaliplatin-induced neuropathic pain, von Frey test", "format": "in vivo", "settings": "for pain threshold, von Frey test: 7 days after OXPT, after OXPT 1.89±0.04 g; for pain threshold as % of the initial value, von Frey test: initial value 3.36±0.10 g", "procedure": "(§1) The tests were carried out using male white Swiss mice (CD-1) weighing 18-25 g. All procedures were carried out in accordance with Polish and international guidelines on ethics of animal testing, after obtaining appropriate institutional approval. The study group consisted of 8-10 animals. The tested and reference substances were administered intraperitoneally 30 minutes before given test as suspension in 1% aqueous solution of Tween. All tests/models were carried out based on the procedures described in the specialist literature: the formalin test (Beirith, A.; Santos, A. R.; Calixto, J. B.; Rodrigues, A. L.; Creczynski-Pasa, T. B. Eur. J. Pharmacol. 1998, 345, 233-245), the model of capsaicin-induced pain (Mogilski, S.; Kubacka, M.; Redzicka, A.; Kazek, G.; Dudek, M.; Malinka, W.; Filipek, B. Pharmacol. Biochem. Behav. 2015, 133, 99-110), the model of oxaliplatin-induced neuropathic pain—von Frey test (Sałat, K.; Cios, A.; Wyska, E.; Satat, R.; Mogilski, S.; Filipek, B.; Wigȩkowski, K.; Malawska, B. Pharmacol. Biochem. Behav. 2014, 122, 173-181).\nOxaliplatin (OXPT) was dissolved in a 5% glucose solution, followed by intraperitoneal administration to mice. A single dose of 10 mg/kg was used. Tactile and thermal (sensation of low temperature) allodynia associated with oxaliplatin-induced neuropathy are characterized by two phases. The early phase is acute and develops soon after administration of the OXPT, while the symptoms of the later (chronic) phase (associated with neurons damage), develops after a few days. Behavioral tests in mice with OXPT-induced neuropathy were carried out 7 days after its administration, i.e. in the late phase of neuropathy.\nThe influence of compounds tested on tactile allodynia was determined in the von Frey test. The animals were placed individually in cages with a reticulated bottom, 60 minutes before the beginning of the experiment, in order to adapt to the new environment. An electronic Von Frey apparatus (Electronic Von Frey, Bioseb, France) was used to assess the pain threshold for mechanical stimuli. The von Frey's fiber was applied to the underside of the right mouse paw with increasing pressure. […] The measurement was performed 3 times for each mouse, with at least 30 seconds between the measurements, then the results obtained were averaged. The entire study was performed 3 times: before OXPT administration to determine the baseline pain threshold; 7 days after administration of OXPT, and before administration of test compounds, to assess developing neuropathy by setting a new pain threshold; 30 minutes after administration of the compounds to determine their influence developed neuropathy.\nCompound 6 was administered at doses of 10, 20 and 30 mg/kg."}, "[2]": {"test_system": "male white Swiss mice (CD-1)", "assay": "Capsaicin-induced pain model", "format": "in vivo", "settings": "Mus musculus, ip; i.p. 30 min before capsaicin, mice", "procedure": "as §1\nThis test assesses the time of licking and/or biting the hind paw into which mice were injected subplantarly with capsaicin in an amount of 1.6 μg, dissolved in 20 μl of a mixture containing 0.9% saline and ethanol (5% of the final volume). Observation was carried out […] after capsaicin administration. Test compounds were administered intraperitoneally 30 minutes before administration of capsaicin. Inhibition of nociceptive reaction—shortening the time of licking and biting the paw was the measure of antinociceptive activity of the compound tested.\nValproic acid (VPA) was the reference compound in this test. […] Compound 6 was administered at 20 mg/kg, 30 mg/kg and 40 mg/kg. Test compounds were administered as a suspension in 1.0% Tween 80 solution. The control group consisted of mice treated with vehicle alone (1% Tween 80 solution). The nociceptive reaction time in this group was 43.29±3.21 seconds."}, "[3]": {"test_system": "Ca2+ channel type L (verapamil binding site)", "assay": "Ca2+ channel type L (verapamil binding site) affinity study", "settings": "100 μM, rat cerebral cortex", "excerpt": "(§2) A unique feature of the compound 6 representing compounds of formula (II) according to the invention is the inhibition of calcium currents by blocking the transient receptor potential vanilloid type 1 (TRPV1). This effect has not been disclosed for known AEDs. TRPV1 receptor antagonism may determine the antinociceptive effect of the compounds disclosed herein. The role of the TRPV1 receptor in conduction of pain stimuli has been well documented in specialist literature (Szallasi, A.; Cortright, D. N.; Blum, C. A.; Eid, S. R. Nat. Rev. Drug. Discov. 2007, 6, 357-372). The compounds according to the invention are characterized by a complex mechanism of action, which is not described for known anticonvulsants. It should be emphasized, however, that further in vitro studies may reveal further molecular targets responsible for the pharmacological action of substances being the subject of current patent claim. The results of binding studies (sodium channel, calcium channel) and functional tests (TRPV1 receptor) for compound 6 are shown in Table 3."}, "Potassium channel (hERG)": {"target": "Potassium channel (hERG) (Homo sapiens, UniProt Q12809)", "sequence (Q12809 whole entry)": "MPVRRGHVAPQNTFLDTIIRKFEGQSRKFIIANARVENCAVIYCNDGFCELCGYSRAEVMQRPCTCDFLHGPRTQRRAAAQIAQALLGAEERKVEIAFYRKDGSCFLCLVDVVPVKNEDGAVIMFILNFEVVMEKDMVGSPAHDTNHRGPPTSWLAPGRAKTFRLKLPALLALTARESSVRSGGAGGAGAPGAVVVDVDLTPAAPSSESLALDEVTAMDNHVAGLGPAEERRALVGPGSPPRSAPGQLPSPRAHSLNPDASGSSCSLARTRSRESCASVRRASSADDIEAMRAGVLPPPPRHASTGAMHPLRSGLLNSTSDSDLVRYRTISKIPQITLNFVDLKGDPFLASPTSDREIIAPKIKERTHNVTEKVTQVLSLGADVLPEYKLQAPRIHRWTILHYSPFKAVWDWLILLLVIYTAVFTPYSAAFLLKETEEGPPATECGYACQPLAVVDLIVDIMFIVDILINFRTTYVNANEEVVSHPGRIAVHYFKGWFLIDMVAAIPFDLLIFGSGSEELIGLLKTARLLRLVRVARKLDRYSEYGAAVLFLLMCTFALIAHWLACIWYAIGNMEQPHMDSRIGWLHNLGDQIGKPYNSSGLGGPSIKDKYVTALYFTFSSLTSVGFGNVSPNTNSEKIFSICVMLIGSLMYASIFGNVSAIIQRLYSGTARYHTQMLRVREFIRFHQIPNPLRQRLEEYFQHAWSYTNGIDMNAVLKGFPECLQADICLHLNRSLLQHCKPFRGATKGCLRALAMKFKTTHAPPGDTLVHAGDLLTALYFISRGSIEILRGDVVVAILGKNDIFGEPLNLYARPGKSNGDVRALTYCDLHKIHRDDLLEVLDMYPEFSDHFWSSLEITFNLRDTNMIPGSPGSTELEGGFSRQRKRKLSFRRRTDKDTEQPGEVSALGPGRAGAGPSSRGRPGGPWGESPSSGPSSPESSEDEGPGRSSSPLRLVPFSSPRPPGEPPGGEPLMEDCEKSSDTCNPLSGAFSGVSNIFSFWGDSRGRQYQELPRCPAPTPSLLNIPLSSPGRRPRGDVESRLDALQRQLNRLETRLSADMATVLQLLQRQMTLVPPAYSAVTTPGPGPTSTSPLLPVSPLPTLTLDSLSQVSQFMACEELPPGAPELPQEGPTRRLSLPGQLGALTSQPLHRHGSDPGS", "assay": "Potassium channel (hERG) affinity study", "format": "binding", "settings": "100 μM, human recombinant cells (HEK-293)"}, "CYP2D6": {"target": "T1, CYP2D6 (Homo sapiens, UniProt P10635)", "T1 construct": "purchased Promega (Madison, WI, USA)", "T1 sequence (P10635 whole entry)": "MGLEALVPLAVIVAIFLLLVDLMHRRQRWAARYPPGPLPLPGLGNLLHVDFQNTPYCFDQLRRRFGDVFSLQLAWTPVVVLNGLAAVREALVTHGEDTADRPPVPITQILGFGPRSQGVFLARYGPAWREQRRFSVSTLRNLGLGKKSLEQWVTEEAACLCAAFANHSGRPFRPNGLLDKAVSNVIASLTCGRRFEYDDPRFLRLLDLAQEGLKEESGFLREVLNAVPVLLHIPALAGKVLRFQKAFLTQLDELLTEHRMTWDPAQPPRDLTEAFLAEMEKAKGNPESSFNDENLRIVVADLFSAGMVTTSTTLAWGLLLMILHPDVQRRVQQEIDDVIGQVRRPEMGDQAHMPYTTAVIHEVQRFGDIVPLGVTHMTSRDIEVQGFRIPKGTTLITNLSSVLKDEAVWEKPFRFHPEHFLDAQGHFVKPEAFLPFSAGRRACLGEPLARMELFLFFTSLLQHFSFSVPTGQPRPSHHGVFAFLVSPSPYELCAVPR", "assay": "CYP2D6 P450-Glo luminescence test", "format": "in vitro ADME", "settings": "10 μM", "procedure": "Effect of compound 6 on cytochrome P-450 3A4 and 2D6 activity. The research was conducted using commercial luminescence tests CYP3A4 P450-Glo™ and CYP2D6 P450-Glo™ from Promega (Madison, WI, USA) based on the methodology described in the literature (Socała, K.; Mogilski, S.; Pieróg, M.; Nieoczym, D.; Abram, M.; Szulczyk, B.; Lubelska, A.; Latacz, G.; Doboszewska, U.; Wlaź, P.; Kamiński, K. ACS Chem. Neurosci. 2018, doi: 10.1021/acschemneuro.8b00476; Latacz, G.; Lubelska, A.; Jastrzȩbska-Wiȩek, M.; Partyka, A.; Sobato, A.; Olejarz, A.; Kucwaj-Brysz, K.; Satata, G.; Bojarski, A. J.; Wesołowska, A.; Kieć-Kononowicz, K.; Handzlik, J. Chem. Biol. Drug. Des. 2017, 90, 1295-1306). The CYP isoforms selected for study are responsible for the metabolism of approximately 40-50% of the drugs available on the market, and their stimulation or inhibition determines the majority of metabolic drug interactions. […] In summary, the results obtained indicate a low probability of potential metabolic interactions caused by 6."}, "Na+ channel (site 2)": {"test_system": "Na+ channel (site 2)", "assay": "Na+ channel (site 2) affinity study", "format": "binding", "settings": "rat cerebral cortex", "excerpt": "as §2"}}, "data": [{"compound": "O=C(C(c1ccccc1)N1C(=O)CCC1=O)N1CCN(c2cccc(C(F)(F)F)c2)CC1", "note": "(racemic) [Compound 6, 1-(2-Oxo-1-phenyl-2-(4-(3-(trifluoromethyl)phenyl)piperazin-1-yl)ethyl)pyrrolidine-2,5-dione]", "values": [{"measurement": "pain threshold, von Frey test", "setting": "[1]; 10 mg/kg i.p.", "result": "2.87 ± 0.12", "unit": "g"}, {"measurement": "pain threshold as % of the initial value, von Frey test", "setting": "[1]; 10 mg/kg i.p.", "result": 85.41, "unit": "%"}, {"measurement": "pain threshold, von Frey test", "setting": "[1]; 20 mg/kg i.p.", "result": "3.83 ± 0.13", "unit": "g"}, {"measurement": "pain threshold as % of the initial value, von Frey test", "setting": "[1]; 20 mg/kg i.p.", "result": 113.98, "unit": "%"}, {"measurement": "pain threshold, von Frey test", "setting": "[1]; 30 mg/kg i.p.", "result": "4.17 ± 0.17", "unit": "g"}, {"measurement": "pain threshold as % of the initial value, von Frey test", "setting": "[1]; 30 mg/kg i.p.", "result": 124.10, "unit": "%"}, {"measurement": "ED50", "setting": "[2]", "result": 17.9, "unit": "mg/kg"}, {"measurement": "Inhibition of specific control binding, Ca2+ channel type L (verapamil binding site)", "setting": "[3]", "result": "58.2 (100) %"}, {"measurement": "Inhibition of specific control binding, Potassium channel (hERG)", "setting": "Potassium channel (hERG)", "result": "25.8 (100) %"}, {"measurement": "effect on CYP2D6 activity", "setting": "CYP2D6", "result": "very weak stimulating effect"}, {"measurement": "Inhibition of specific control binding, Na+ channel (site 2)", "setting": "Na+ channel (site 2); 10 μM", "result": "33.4 (10) %"}, {"measurement": "Inhibition of specific control binding, Na+ channel (site 2)", "setting": "Na+ channel (site 2); 100 μM", "result": "82.5 (100) %"}]}]}
